Reference: patent US20230107216A1, “PANTETHEINE DERIVATIVES AND USES THEREOF” (Comet Therapeutics, Inc., priority 2018, published 2023)
Read-outs that look alike come from different tables or passages of the source.

Test system: monocyte-derived M1 macrophages
Assay: M1 differentiation assay (macrophage TNFα, IL6, IL10 ELISA, FACS)
Assay type: cell-based, human
Details: for inhibition at 10 µM / activation at 50 µM / activation at 10 µM / inhibition at 50 µM: Homo sapiens, Macrophage; for activation at 50 µM / activation at 10 µM: read-out: % Increase in IL-10 Secretion
Outline: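 CD14+ human blood monocytes (100,000) differentiated 6 days with 10 ng/ml GM-CSF plus compound at 10 or 50 μM, refreshed days 2 and 4. Matured 24 h with GM-CSF, IFNγ, LPS plus compound. Supernatant TNFα, IL6, IL10 by ELISA; FACS M1 phenotype CD86+CD68+CD163−.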

[1] = 10 uM, read-out: % decrease in Macrophage IL-6 Secretion
[2] = 10 uM, read-out: % decrease in Macrophage TNFα Secretion
[3] = 50 uM, read-out: % decrease in Macrophage IL-6 Secretion

## CC(C)(COC(=O)CCC(=O)O)[C@@H](O)C(=O)NCCC(=O)NCCS [Compound 1310, (R)-4-(3-hydroxy-4-((3-((2-mercaptoethyl)amino)-3-oxopropyl)amino)-2,2-dimethyl-4-oxobutoxy)-4-oxobutanoic acid]
[1]
  inhibition at 10 µM: ≥ 30%
[2]
  inhibition at 10 µM: ≥ 30%
50 uM
  activation at 50 µM: ≥ 30%

## C[C@@H](O)CC(=O)SCCNC(=O)CCNC(=O)[C@H](O)C(C)(C)CO [Compound 38, S-2-{3-[(R)-2,4-dihydroxy-3,3-dimethylbutyrylamino]propionylamino} ethyl (R)-3-hydroxybutanethioate]
50 uM
  % Increase in Live Macrophage Cells: ≥20%
10 uM
  activation at 10 µM: ≥ 30%
[1]
  inhibition at 10 µM: ≥ 30%
[2]
  inhibition at 10 µM: ≥ 30%

## COC(=O)CC[C@H](N)C(=O)SCCNC(=O)CCNC(=O)[C@H](O)C(C)(C)CO [Compound 411]
50 uM
  % decrease in Live Macrophage Cells: ≥20%
[2]
  inhibition at 10 µM: ≥ 30%

## COC(=O)/C=C/C(=O)SCCNC(=O)CCNC(=O)[C@H](O)C(C)(C)COP(=O)(O)O [Compound 73, methyl (R,E)-4-((2-(3-(2-hydroxy-3,3-dimethyl-4-(phosphonooxy)butanamido)propanamido)ethyl)thio)-4-oxobut-2-enoate]
[2]
  inhibition at 10 µM: ≥ 30%
[3]
  inhibition at 50 µM: ≥ 30%

## CC(O)CC(O)CC(O)CC(=O)SCCNC(=O)CCNC(=O)[C@H](O)C(C)(C)CO (stereo partly drawn) [Compound 401]
50 uM
  % decrease in Live Macrophage Cells: ≥20%
[2]
  inhibition at 10 µM: ≥ 30%

## CC(O)CC(O)CC(=O)SCCNC(=O)CCNC(=O)[C@H](O)C(C)(C)CO (stereo partly drawn) [Compound 400]
10 uM
  activation at 10 µM: ≥ 30%
50 uM, read-out: % decrease in Macrophage TNFα Secretion
  inhibition at 50 µM: ≥ 30%

## CC(=O)SCCNC(=O)CCNC(=O)[C@H](O)C(C)(C)COC(=O)CCC(=O)O [Compound 1242, (R)-12-hydroxy-13,13-dimethyl-2,7,11,16-tetraoxo-15-oxa-3-thia-6,10-diazanonadecan-19-oic acid]
10 uM
  % decrease in Live Macrophage Cells: ≥20%
  activation at 10 µM: ≥ 30%
[1]
  inhibition at 10 µM: ≥ 30%
[2]
  inhibition at 10 µM: ≥ 30%

## CC[C@@H](O)CC(=O)SCCNC(=O)CCNC(=O)[C@H](O)C(C)(C)CO [Compound 1245, (2R)-2,4-dihydroxy-N-{2-[(2-{[(3R)-3-hydroxypentanoyl]sulfanyl}ethyl)carbamoyl]ethyl}-3,3-dimethylbutanamide]
10 uM
  activation at 10 µM: ≥ 30%
[1]
  inhibition at 10 µM: ≥ 30%
[2]
  inhibition at 10 µM: ≥ 30%

## C[C@H](CC(=O)SCCNC(=O)CCNC(=O)[C@H](O)C(C)(C)CO)OC(=O)CCC(=O)O [Compound 1243, 4-{[(2R)-4-[(2-{3-[(2R)-2,4-dihydroxy-3,3-dimethylbutanamido]propanamido}ethyl)sulfanyl]-4-oxobutan-2-yl]oxy}-4-oxobutanoic acid]
[2]
  inhibition at 10 µM: ≥ 30%

## CC1(CC(=O)SCCNC(=O)CCNC(=O)[C@H](O)C(C)(C)CO)OCCO1 [Compound 1252, (R)—S-(2-(3-(2,4-dihydroxy-3,3-dimethylbutanamido)propanamido)ethyl)-2-(2-methyl-1,3-dioxolan-2-yl)ethanethioate]
50 uM
  % decrease in Live Macrophage Cells: ≥20%
  activation at 50 µM: ≥ 30%
[1]
  inhibition at 10 µM: ≥ 30%
[2]
  inhibition at 10 µM: ≥ 30%

## CC(C(=O)SCCNC(=O)CCNC(=O)[C@H](O)C(C)(C)CO)[C@@H](C)O (stereo partly drawn) [Compound 1244, (2R)-2,4-dihydroxy-N-{2-[(2-{[(3R)-3-hydroxy-2-methylbutanoyl]sulfanyl}ethyl)carbamoyl]ethyl}-3,3-dimethylbutanamide]
[1]
  inhibition at 10 µM: ≥ 30%
[2]
  inhibition at 10 µM: ≥ 30%

## CC(C)=CC(=O)SCCNC(=O)CCNC(=O)[C@H](O)C(C)(C)CO [Compound 37, S-2-{3-[(R)-2,4-dihydroxy-3,3-dimethylbutyrylamino]propionylamino}ethyl 3-methyl-2-butenethioate]
10 uM
  % decrease in IL-10 Secretion: ≥30%
[2]
  inhibition at 10 µM: ≥ 30%
[3]
  inhibition at 50 µM: ≥ 30%

## CC(C)(CO)[C@@H](O)C(=O)NCCC(=O)NCCSC(=O)CC(O)C(=O)O (stereo partly drawn) [Compound 39]
10 uM
  % Increase in Live Macrophage Cells: ≥20%
  activation at 10 µM: ≥ 30%
[1]
  inhibition at 10 µM: ≥ 30%
[2]
  inhibition at 10 µM: ≥ 30%
